Where two headings read alike, the source gives them in different places.
Columns and labels:
[1] = system: Duroc×Landrace×Yorkshire cross-bred bacon-type pigs; assay: Breeding test B1: effect on the production performance of pigs; format: in vivo; conditions: 400 ppm in basal daily ration, 28 days; for ADFI (average daily feed intake) / ADG (average daily gain): 65-day-old pigs; for FCR (feed conversion ratio): ADFI/ADG
Excerpt: 270 65-day-old Duroc×Landrace×Yorkshire cross-bred bacon-type pigs with similar body weight were randomly divided into 9 groups, with 3 replications per group and 10 pigs (half of male and female) per replication. The pigpens and utensils were sterilized before the test. During the test period, the test pigs were free-stall housed in the same pigpen under the same feeding and management conditions. During the test period, the test pigs were free to drink water and eat feed, and test pigs were fed twice a day. The test groups were the control group (group I) and the test groups II˜IX, respectively. Wherein the basal daily ration was only given for the control group, and 400 ppm of different acylated derivative of the aminobutyric acid was added into the basal daily ration for the test groups II˜IX.
No other antioxidant ingredients and growth promoters were added for the test groups during the entire feeding process. The test period was 28 days, with each repetition as a unit, the test pigs were weighed at the age of 93 days without stopping water and feed for 12 hours; the average daily feed intake (ADFI, g/d*each pig), the average daily gain (ADG, g/d*each pig) and the feed conversion ratio (FCR) were calculated for each of the test groups. The formula for calculation was as follows: Average daily feed intake=(total amount of feed−remaining amount of feed)/(number of days of test×number of pigs per repetition); Average daily gain=(average body weight at the end of the test−average body weight at the beginning of the test)/number of days of test; Feed conversion ratio=average daily feed intake/average daily gain.

[2] = system: Jingbai laying hens; assay: Breeding test B2: effect on the production performance of laying hens; format: in vivo; conditions: 150 ppm in basal daily ration, 158 days; for EPR (egg production rate): 147-day-old laying hens
Excerpt: The test adopted a single-factor random design. 1,080 147-day-old Jingbai laying hens with similar body weight were selected and randomly divided into 9 groups, with 6 replications per group and 20 Jingbai laying hens per replication. The poultry houses and utensils were sterilized before the test. During the test period, the Jingbai laying hens were cage cultured in the same poultry house under the same feeding and management conditions. The basal daily ration was mainly corn-soybean meal, and no other antioxidant ingredients and growth promoters were added additionally during the entire feeding process. The test groups were the control group (group I) and the test groups II˜IX, respectively. The basal daily ration was only given for the control group, and 150 ppm of different acylated derivatives of the aminobutyric acid were added into the basal daily ration for the test groups II˜IX. The pre-feeding period was 10 days, and the test period was 158 days. The test laying hens were free to drink water and eat feed, and were fed twice a day. The test takes each repetition as a unit, and records the total egg number, the egg production, and the feed intake every day, and calculates the egg production rate (EPR), the average daily feed intake (ADFI, g/d), the egg weight (EW, g) and the feed-to-egg ratio (FER) of the laying hens during the entire test. The formula for calculation was as follows: Egg production rate (%)=average daily total egg number/number of laying hens×100; Egg weight (g)=average daily total egg weight/average daily total egg number; Feed-to-egg ratio=average daily feed intake/egg weight.

[3] = system: yellow-feathered broilers; assay: Breeding test B3: effect on the production performance of broilers; format: in vivo; conditions: 300 ppm in basal daily ration, 20 days; for ADFI (average daily feed intake): 1-day-old broilers; for FCR (feed conversion ratio): ADFI/ADG
Excerpt: The test adopted a single-factor random design. 1,080 1-day-old yellow-feathered broilers with similar body weight and the average weight of 50 g were selected and randomly divided into 9 groups, with 6 replications per group and 20 yellow-feathered broilers (half of male and female) per replication. The poultry houses and utensils were sterilized before the test. During the test period, the yellow-feathered broilers were housed in the same poultry house under the same feeding and management conditions. The basal daily ration was mainly corn-soybean meal, and no other antioxidant components and growth promoters were added additionally during the entire feeding process. The test groups were the control group (group I) and the test groups II˜IX, respectively. The basal daily ration was only given for the control group, and 300 ppm of different acylated derivatives of the aminobutyric acid were added into the basal daily ration for the test groups II˜IX.
The test period was 20 days. The test broilers were free to drink water and eat feed, and were fed twice a day. With each repetition as a unit, the test broilers were weighed at the age of 21 days (stopping feed for 12 hours, without stopping water), the feed consumption of test broilers were recorded, and the average daily feed intake (ADFI, g/d*each broiler), the average daily gain (ADG, g/d*each broiler) and feed conversion ratio (FCR) were calculated for each of the test groups. The formula for calculation was as follows: Feed conversion ratio (FCR)=average daily feed intake/average daily gain.

[4] = system: grass carps; assay: Breeding test B4: use in fish feed (growth of grass carps); format: in vivo; conditions: for change in vivo at 150 ppm, 150 µg/mL: po, 1344 h, read-out: Weight gain rate
Protocol: The test fishes used were grass carps, and the test was carried out in the aquaculture farm of the test field of Guangzhou Insighter. Healthy, lively, and uniform grass carp fingerlings were fed in large cages for 4 weeks before being used for formal breeding test. The experimental system was a small floating cage. Both the small cage and the temporary cage were placed in a 3500 m^2 pond of the test field, the depth of the pond was about 1.5 m, and the water of the pond was fully aerated in the bottom of the pond. During the test, 360 grass carps that were hungry for 1 day were randomly divided into 9 groups, with 4 replications per group and 10 grass carps per replication. All of the grass carps were weighed, and then were randomly placed in 36 cages and fed with different test feeds. The test feeds were self-prepared, and 150 ppm of different acylated derivatives of the aminobutyric acid were added into the basal feed for different test groups, respectively. The test groups were the control group (group I) and the test groups IIIX, respectively. The basal daily ration was only given for the control group, and 150 ppm of different acylated derivatives of the aminobutyric acid were added into the basal daily ration for the test groups IIIX.
The test adopted time-limited artificial feeding, and the feeding amount was adjusted once a week. The feeding rate of the control group and the feeding rate of the test groups (according to the initial body weight) were exactly the same, and the grass carps were fed twice a day (7:30 and 15:00). The test period was 8 weeks.

[5] = after subcutaneous injection; cited from earlier work
[6] = system: convulsion caused by bicuculline or corazol; conditions: cited from earlier work
[7] = system: glutamate decarboxylase; conditions: cited from earlier work
[8] = system: nephrotoxicity caused by cephalosporin; conditions: rabbit; 150 mg/kg; cephalosporin at a dose of 150 mg/kg; cited from earlier work

| SMILES | ADFI (average daily feed intake) [1] | ADG (average daily gain) [1] | FCR (feed conversion ratio) [1] | ADFI (average daily feed intake) [2] | EW (egg weight) [2] | EPR (egg production rate) [2] | ADG (average daily gain) [3] | ADFI (average daily feed intake) [3] | FCR (feed conversion ratio) [3] | (FCR) ([4]; 150 ppm in basal feed, 8 weeks) | Average final weight ([4]; 150 ppm in basal feed, 8 weeks) | change in vivo at 150 ppm, 150 µg/mL [4] | time to maximum blood concentration [5] | antagonism of convulsion [6] | inhibition of glutamate decarboxylase [7] | protection of the kidney from cephalosporin nephrotoxicity [8] | change in vivo at 150 ppm, 150 µg/mL ([4]; 150 ppm in basal feed, 8 weeks) |
| --- | --- | --- | --- | --- | --- | --- | --- | --- | --- | --- | --- | --- | --- | --- | --- | --- | --- |
| O=C(O)CCCNC(=O)c1ccccc1 [N-benzoyl-γ-aminobutyric acid] | 1837 g/d * each pig | 699 g/d * each pig | 2.628 | 158 g/day | 54.92 g | 86.7% | 14.13 g/d * each broiler | 27.56 g/d * each broiler | 1.95 | 1.79 | 721 g | 81.6% | ≤ 5 min | can antagonize the convulsion | can inhibit a glutamate decarboxylase | can significantly protect the kidney |  |
| O=C(O)CCCNC(=O)c1ccc(O)cc1 [N-p-hydroxybenzoyl-γ-aminobutyric acid] | 1602 g/d * each pig | 611 g/d * each pig | 2.620 | 161 g/day | 55.27 g | 81.8% | 12.32 g/d * each broiler | 24.52 g/d * each broiler | 1.99 | 1.82 | 710 g |  |  |  |  |  | 81.5% |
| Cc1ccc(C(=O)NCCCC(=O)O)cc1 [N-p-methylbenzoyl-γ-aminobutyric acid] | 1769 g/d * each pig | 672 g/d * each pig | 2.631 | 159 g/day | 54.81 g | 84.4% | 13.84 g/d * each broiler | 27.13 g/d * each broiler | 1.96 | 1.74 | 739 g |  |  |  |  |  | 82.1% |

Source: patent US12302928B2, “Application of acylated derivative of amino acid in preparation of animal feed additive” (ANIPHA TECHNOLOGIES PTY LTD, priority 2018, dated 2025)
